Test results as given in ChEMBL document CHEMBL1201862, “PubChem BioAssay data set” (2004).
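48-hour exposure; five concentrations; linearly interpolated endpoints. GI50 = concentration required for 50% inhibition of growth.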 The source made the active and inactive calls. Cut-off read from the data, not from the text of the source: active = GI50 up to about 1.1 µM and inactive = higher.

What was measured:
Experiment in all cases: NCI anticancer screen, dose series, 48 h
[1] = system: SNB-75
[2] = system: SF-539
[3] = system: M14
[4] = system: SR
[5] = system: UO-31
[6] = system: HOP-62
[7] = system: HOP-92
[8] = system: SW-620
[9] = system: EKVX
[10] = system: IGROV-1
[11] = system: SNB-19
[12] = system: A549
[13] = system: SN12C
[14] = system: SK-MEL-5
[15] = system: NCI-H460

Measured: GI50

N#Cc1ccccc1/C=N/O
inactive: [1] > 69.5 µM | [2] > 100 µM | [3] > 100 µM | [4] > 100 µM | [5] > 100 µM | [6] > 100 µM | [7] > 100 µM | [8] > 36.9 µM | [9] > 100 µM | [10] > 100 µM | [11] > 100 µM | [12] > 100 µM | [13] > 100 µM | [14] > 100 µM | [15] > 59.2 µM

NCCCNCc1c2ccccc2c(CNCCCN)c2ccccc12
inactive: [1] 19.8 µM | [2] 14.6 µM | [3] > 10 µM | [5] 37.8 µM | [6] 22.9 µM | [7] 11.5 µM | [8] 6.84 µM | [9] 20.3 µM | [10] 44.2 µM | [11] 33.2 µM | [12] 19.2 µM | [13] 3.66 µM | [14] 27.1 µM | [15] 16.4 µM

Cc1nc(N2N=C(c3ccc(Cl)cc3)CCC2=O)sc1[N+](=O)[O-]
inactive: [1] > 100 µM | [2] > 100 µM | [3] > 100 µM | [4] > 100 µM | [5] > 100 µM | [6] > 100 µM | [8] > 100 µM | [9] 67.6 µM | [10] > 100 µM | [11] > 100 µM | [12] > 100 µM | [13] > 100 µM | [14] > 100 µM | [15] > 100 µM

Cn1c(=O)c(/N=N/c2c(=O)n(C)c(=O)n3c2[nH]c2ccccc23)c2[nH]c3ccccc3n2c1=O
inactive: [1] 29.1 µM | [2] 57.4 µM | [3] > 100 µM | [5] 87.3 µM | [6] 57.1 µM | [7] 94.2 µM | [8] > 100 µM | [9] > 100 µM | [10] 86.7 µM | [11] 13.2 µM | [12] 92.7 µM | [14] > 100 µM | [15] 9.89 µM

Cc1ccc(NC(=O)c2cc3cc(/N=N/c4ccccc4C(=O)O)ccc3oc2=O)cc1
inactive: [1] 45.9 µM | [2] 30.5 µM | [3] 55.3 µM | [5] 30.1 µM | [6] > 100 µM | [8] 47.5 µM | [9] 46.1 µM | [10] 41.2 µM | [11] 28.4 µM | [12] 40.9 µM | [13] 54.6 µM | [14] 28.5 µM | [15] 49.3 µM

COC(=O)C1=C(C[S+]([O-])c2ccc([N+](=O)[O-])cc2[N+](=O)[O-])ON(C)C1c1ccccc1 (configuration not stated)
inactive: [1] 16.3 µM | [2] 21.9 µM | [3] 96.6 µM | [5] 39.4 µM | [6] 39 µM | [8] 15.7 µM | [9] > 64.6 µM | [10] > 84.5 µM | [11] 32.8 µM | [12] 99.8 µM | [13] 29.4 µM | [14] 83.9 µM | [15] > 90.4 µM

CC(O)C(C(=O)O)N(CC1(O)OCC(O)C(O)C1O)N=O (configuration not stated)
inactive: [1] > 100 µM | [2] > 100 µM | [3] > 100 µM | [5] > 100 µM | [6] > 100 µM | [7] > 100 µM | [8] > 100 µM | [9] > 100 µM | [10] > 100 µM | [12] > 100 µM | [15] > 100 µM

CCCCCCCCCCCCCCCC(=O)OCC1OC(n2cc(F)c(=O)[nH]c2=O)C(N)C(O)C1O (configuration not stated)
inactive: [1] 19.2 µM | [2] 19.4 µM | [3] 17.8 µM | [5] 15.6 µM | [6] 19.7 µM | [7] 20.1 µM | [8] 16.7 µM | [9] 18.8 µM | [10] > 10 µM | [11] 22.2 µM | [12] 19 µM | [13] 18.2 µM | [14] 18.1 µM

Cc1ccc(S(=O)(=O)NC(=O)NCCc2ccccc2)cc1
inactive: [1] 68.2 µM | [2] > 100 µM | [3] > 100 µM | [5] 51.8 µM | [6] > 100 µM | [7] > 100 µM | [8] > 100 µM | [9] > 100 µM | [10] > 100 µM | [11] > 100 µM | [12] > 100 µM | [13] > 100 µM | [14] > 100 µM | [15] > 100 µM

COC(=O)c1c/c(=N\NC(=O)CC(=O)Nc2ccccc2Cl)c2ccccc2o1
inactive: [1] > 100 µM | [2] > 100 µM | [3] > 100 µM | [4] > 100 µM | [5] 91.4 µM | [6] > 100 µM | [8] > 100 µM | [9] > 100 µM | [10] > 100 µM | [11] > 100 µM | [12] > 100 µM | [13] > 100 µM | [14] > 100 µM | [15] > 100 µM

Fc1ccccc1C1CC(c2ccc3ccccc3c2)=Nc2ccccc2S1 (configuration not stated)
inactive: [2] > 100 µM | [3] > 100 µM | [4] > 100 µM | [5] > 100 µM | [6] > 100 µM | [8] > 100 µM | [9] > 100 µM | [10] > 100 µM | [11] > 100 µM | [12] > 100 µM | [13] > 100 µM | [15] > 100 µM

C#CCNC(=O)N(CC#C)N=O
inactive: [1] > 100 µM | [2] > 100 µM | [3] > 100 µM | [5] > 100 µM | [6] > 100 µM | [7] > 100 µM | [8] > 100 µM | [9] > 100 µM | [10] > 100 µM | [11] > 100 µM | [13] > 100 µM | [14] > 100 µM | [15] > 100 µM

OCC(O)C(O)C(O)C(O)c1nnn[nH]1 (configuration not stated)
inactive: [2] > 100 µM | [3] > 100 µM | [4] > 100 µM | [5] > 100 µM | [6] > 100 µM | [7] > 100 µM | [8] > 100 µM | [9] > 100 µM | [10] > 100 µM | [12] > 100 µM | [13] > 100 µM | [14] 78.9 µM | [15] > 100 µM

CCN1C[C@]2(C)CC[C@H](O)C34C1C(C[C@@H]32)[C@@]1(O)CC[C@H]2C[C@@H]4[C@@H]1[C@H]2O
inactive: [1] > 100 µM | [2] > 100 µM | [3] > 100 µM | [4] > 100 µM | [5] > 100 µM | [6] > 100 µM | [7] > 100 µM | [8] > 100 µM | [10] > 100 µM | [11] > 100 µM | [12] > 100 µM | [13] > 100 µM | [14] > 100 µM | [15] > 100 µM

COc1cc2c(cc1OC)C(Cc1cc(Br)c(OC)c(OC)c1)=[N+](C)CC2
inactive: [1] 94.4 µM | [2] > 100 µM | [3] 69.8 µM | [5] > 100 µM | [6] 43.4 µM | [7] 28.2 µM | [8] 67.3 µM | [9] > 100 µM | [10] > 100 µM | [11] 55.6 µM | [12] 34.8 µM | [13] 87.3 µM | [14] 19.2 µM | [15] 58.1 µM

O=c1[nH]c(-c2ccccc2)nc2ccc(Cl)cc12
inactive: [2] > 100 µM | [4] 85.5 µM | [5] 48.1 µM | [7] 16.5 µM | [8] 29.4 µM | [9] 54.7 µM | [11] 79.3 µM | [12] > 100 µM | [13] 41 µM

O=C(OCc1ccccc1C1CSCSC1)c1cc(C(=O)OCc2ccccc2C2CSCSC2)c(C(=O)OCc2ccccc2C2CSCSC2)cc1C(=O)OCc1ccccc1C1CSCSC1
inactive: [1] 29.4 µM | [2] > 100 µM | [3] > 100 µM | [4] > 100 µM | [5] > 100 µM | [6] > 100 µM | [7] > 100 µM | [8] > 100 µM | [10] > 100 µM | [12] > 100 µM | [13] > 100 µM | [14] > 100 µM | [15] > 100 µM

CCCCCCCCC(=O)N(C)C1C2CN3CCC(O2)C13 (configuration not stated)
inactive: [1] 75.7 µM | [2] > 100 µM | [3] > 100 µM | [5] > 100 µM | [6] > 100 µM | [8] > 100 µM | [9] > 100 µM | [10] > 100 µM | [11] > 100 µM | [12] > 100 µM | [13] > 100 µM | [14] > 100 µM | [15] > 100 µM

COc1cc(Br)c(/C=N\c2cccc3ccc(OS(=O)(=O)c4ccc([N+](=O)[O-])cc4)cc23)cc1OC
inactive: [2] > 100 µM | [4] > 100 µM | [5] 7.33 µM | [6] > 100 µM | [7] 47.3 µM | [8] > 100 µM | [9] > 100 µM | [10] > 100 µM | [11] 63.4 µM | [12] 33.7 µM | [13] > 100 µM | [14] 13.8 µM | [15] > 100 µM

Brc1ccccc1C1SCc2nc3ccccc3n21 (configuration not stated)
inactive: [1] 21.7 µM | [2] 17.4 µM | [3] 17.2 µM | [4] 12.6 µM | [5] 10.4 µM | [6] 19 µM | [7] 10.8 µM | [8] 32.3 µM | [9] 17.3 µM | [10] 18.6 µM | [12] 26.1 µM | [13] 12.8 µM | [14] 6.34 µM | [15] 17.4 µM
